Patent US20250034139A1, “AMINE COMPOUNDS HAVING ANTI-INFLAMMATORY, ANTIFUNGAL, ANTIPARASITIC, AND ANTICANCER ACTIVITY” (PHARMA CINQ, LLC, priority 2013, published 2025)
Marks after values point to notes of the source that are not given here.

Key:
[1] = test system: TPA induced chronic skin inflammation; assay: Example E: TPA induced chronic skin inflammation mouse model, ear thickness; format: in vivo; details: day 22, 0.05 mg/ear daily topical from day 7, TPA-treated mice
Source text: Objective: To evaluate the anti-inflammatory properties of compounds of the invention in a 12-O-tetradecanoylphorbol-13-acetate (TPA) induced chronic skin inflammation mouse model.
Topically applied phorbol esters such as TPA induce skin inflammation involving edema, macrophage and T cell infiltration and epidermal hyperplasia (Alford et al., 1992), and this system has been used as an animal model for dermatitis, mimicking aspects of human inflammatory skin disorders. TPA is also known as a tumor promoter, so that agents which inhibit hyperproliferative or angiogenic actions of TPA may inhibit tumor promotion.
Drug formulations: Compound AC was dissolved in isopropyl myristate:propylene glycol (1:1)+0.9% DMSO at the indicated concentrations. TPA was dissolved in acetone:water (99:1). Dexamethasone (0.06%) was dissolved in normal saline.
Mice: HSD-ICR(CD-1R) female mice at 8-10 weeks of age were used in this experiment.
Experimental Design: Mice were placed into six groups of 10 mice each. 20 μL of 0.01% TPA was administered to each ear on days 0, 2, 4, 7, 9, 11, 13, 15, 18, 20, and 22. 20 μL of AC at various concentrations or 20 μL of dexamethasone solution was applied to the ears daily beginning on day 7, after inflammatory changes in ear thickness were established. Ear thickness was measured with calipers every three days.

[2] = test system: imiquimod-induced dermatitis
Protocol: Topical imiquimod (IMQ), a toll-like receptor agonist, has been established as a model of Inflammatory skin diseases including psoriasis and atopic dermatitis. Dermal inflammatory changes and gene expression in mice treated with topical imiquimod mimic human psoriasis and dermatitis (van der Fits et al., 2009; Swindell et al., 2011). The effect of a set of compounds of the invention were tested in a mouse model of imiquimod-induced dermatitis, with topical tacrolimus and dexamethasone as comparators for assessing safety and efficacy relative to standard agents used to treat dermatitis in humans.
Commercial 0.1% tacrolimus ointment (ProTopic™[…]) was also used as an active comparator. Petrolatum containing 10% ethanol was used as a control treatment.
Female Balb/C mice (8 weeks old) were randomized and divided into groups of 5 animals each. Polyethylene collars were affixed to the mice to prevent them from easily scratching their ears. 5% imiquimod was applied to both ears of each mouse (20 microliters per ear) daily for 5 days, and then every other day for the full duration of the study. […] On day 7 after initiation of imiquimod, treatment with topical agents was started. Both ears of each mouse were treated with test ointments, with one compound per mouse.
Ear thickness and PASI assessments (Psoriasis Area and Severity Index, a standard psoriasis scoring system) were recorded twice per week throughout the study. The PASI score comprises the sum of evaluations of swelling, erythema and scaling on scales from 0 to 4; the maximum PASI score is 12, and the minimum, in unaffected skin, is 0).

D BW (g) ([2]; mouse, in vivo): −2.4 * g
Hair growth on the imiquimod-affected head area, in words ([2]; mouse, in vivo): remained hairless
SMILES: C[C@@H]1C[C@H]2[C@@H]3CCC4=CC(=O)C=C[C@]4(C)[C@@]3(F)[C@@H](O)C[C@]2(C)[C@@]1(O)C(=O)CO [Dexamethasone, reference compound]
Ear thickness (mm) [1]: 0.301 ± 0.0722 mm
Ear thickness, Mean ± SEM ([2]; imiquimod-treated mice, topical ointment 0.06% active drug (dexamethasone 0.03%, tacrolimus 0.1%)): 0.305 ± 0.111
Body Weight (mean ± SEM), Final ([2]; mouse, in vivo): 18.1 ± 0.5 g
Body Weight (mean ± SEM), Initial ([2]; mouse, in vivo): 20.5 ± 0.6 g
PASI Score, Mean ± SEM ([2]; scale 0-12, topical ointment 0.06% active drug (dexamethasone 0.03%, tacrolimus 0.1%)): 4.525 ± 0.375
